The target of experiment [1] is T1, FXR (CMX-hFXR with CMX-RXRα in CV-1 cells) (Homo sapiens, UniProt Q96RI1).
T1 construct: expressed in transfected cells; host or cells: CV-1 African Green Monkey Kidney cells
T1 sequence (Q96RI1 1-472 isoform Q96RI1-2): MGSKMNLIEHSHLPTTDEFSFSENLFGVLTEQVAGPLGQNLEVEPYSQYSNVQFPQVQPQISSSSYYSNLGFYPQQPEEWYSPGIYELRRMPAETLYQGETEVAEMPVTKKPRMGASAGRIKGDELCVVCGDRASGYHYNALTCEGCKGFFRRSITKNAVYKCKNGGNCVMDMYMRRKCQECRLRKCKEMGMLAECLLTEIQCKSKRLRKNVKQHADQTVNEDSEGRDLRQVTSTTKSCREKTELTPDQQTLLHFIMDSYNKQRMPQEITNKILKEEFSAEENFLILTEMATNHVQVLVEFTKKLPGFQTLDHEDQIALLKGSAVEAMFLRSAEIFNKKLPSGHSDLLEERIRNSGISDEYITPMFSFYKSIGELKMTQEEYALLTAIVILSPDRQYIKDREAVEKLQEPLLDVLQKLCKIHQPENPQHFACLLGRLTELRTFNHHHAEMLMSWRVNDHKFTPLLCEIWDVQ
T1 sequence (P19793 1-462 partner): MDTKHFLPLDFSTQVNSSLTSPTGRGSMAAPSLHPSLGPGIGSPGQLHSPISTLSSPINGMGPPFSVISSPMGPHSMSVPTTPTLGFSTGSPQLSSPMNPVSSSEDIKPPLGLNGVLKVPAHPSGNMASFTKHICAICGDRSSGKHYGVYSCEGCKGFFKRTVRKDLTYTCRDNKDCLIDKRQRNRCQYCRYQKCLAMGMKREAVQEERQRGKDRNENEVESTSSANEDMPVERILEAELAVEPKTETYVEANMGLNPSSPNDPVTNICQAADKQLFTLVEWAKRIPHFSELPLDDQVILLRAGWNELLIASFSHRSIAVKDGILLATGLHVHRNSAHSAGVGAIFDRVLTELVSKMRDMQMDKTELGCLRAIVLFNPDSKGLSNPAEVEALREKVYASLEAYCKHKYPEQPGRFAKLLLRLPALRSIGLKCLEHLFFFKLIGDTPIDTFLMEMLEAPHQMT
The experiment in a line: FXR/ECREx7 co-transfection assay (luciferase reporter). Type of experiment: cell-based. To be noted: for EC50: FXR agonism. Here is the method:
The basic co-transfection protocol for measuring FXR activity is as follows. CV-1 African Green Monkey Kidney cells are plated 24 hours before transfection to achieve approximately 70–80 percent confluency. Cells are transfected with CMX-hFXR, CMX-RXRα, Luc12 reporter (ECREx7-Tk-Luciferase), and a CMX-β-Galactosidase expression vector. The transfection reagent used is DOTAP. Cells are incubated with the DOTAP/DNA mixture for 5 hours after which the cells are harvested and plated onto either 96 well or 384 well plates containing the appropriate concentration of test compound. The assay is allowed to continue for an additional 18–20 hours, after which the cells are lysed, and the luciferase activity is measured on a standard plate reader.
Both the FXR/ECREx7 co-transfection assay (Example 54) and the TR-FRET assay (Example 53) can be used to establish the EC50/IC50 values for potency and percent activity or inhibition for efficacy. Efficacy defines the activity of a compound relative to a high control (chenodeoxycholic acid, CDCA) or a low control (DMSO/vehicle). The dose response curves are generated from an 8 point curve with concentrations differing by ½ LOG units. Each point represents the average of 4 wells of data from a 384 well plate. The curve for the data is generated by using the equation: Y=Bottom+(Top−Bottom)/(1+10^((LogEC50−X)*HillSlope))
The EC50/IC50 is therefore defined as the concentration at which an agonist or antagonist elicits a response that is half way between the Top (maximum) and Bottom (baseline) values. The EC50/IC50 values represented are the averages of at least 3 independent experiments. The determination of the relative efficacy or % control for an agonist is by comparison to the maximum response achieved by chenodeoxycholic acid that is measured individually in each dose response experiment.
For the antagonist assay, 40 μM CDCA is added to each well of a 384 well plate to elicit a response. The % inhibition for each antagonist is therefore a measurement of the inhibition of the activity of 40 μM CDCA. In this example 100% inhibition would indicate that the activity of 40 μM CDCA has been reduced to baseline levels, defined as the activity of the assay in the presence of DMSO only.
A general note: Reporter assays use an easily measured gene product as a stand-in for the process of interest.

The target in another experiment is T2, GST-FXR-LBD (Homo sapiens, UniProt Q96RI1).
T2 sequence (Q96RI1 244-472 isoform Q96RI1-2): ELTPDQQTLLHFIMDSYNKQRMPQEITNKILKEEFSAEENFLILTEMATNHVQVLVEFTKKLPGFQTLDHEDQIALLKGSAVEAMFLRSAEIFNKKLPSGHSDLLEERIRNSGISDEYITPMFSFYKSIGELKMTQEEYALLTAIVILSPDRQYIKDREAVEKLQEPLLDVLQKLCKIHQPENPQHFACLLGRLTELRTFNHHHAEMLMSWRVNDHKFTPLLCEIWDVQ
The experiment in a line: Time resolved fluorescence resonance energy transfer (TR-FRET) coactivator recruitment assay. Type of experiment: biochemical. As to the method: The FRET assay was performed by incubating 8 nM of GST-FXR-LBD, 8 nM of Europium-labeled anti-GST antibody (Wallac), 16 nM biotin-SRC-1 peptide [5′-biotin-[…]-CONH2], 20 nM APC-SA [allophycocyanin conjugated streptavidin] (Wallac) in FRET assay buffer (20 mM KH2PO4/K2HPO4 (pH 7.3), 150 mM NaCl, 2 mM CHAPS, 2 mM EDTA, 1 mM DTT) in the presence of the test compound(s) for 2–4 hours at room temperature. Data was collected using an LJL Analyst with readings at 615 nm and 665 nm.
Both the FXR/ECREx7 co-transfection assay (Example 54) and the TR-FRET assay (Example 53) can be used to establish the EC50/IC50 values for potency and percent activity or inhibition for efficacy. Efficacy defines the activity of a compound relative to a high control (chenodeoxycholic acid, CDCA) or a low control (DMSO/vehicle). The dose response curves are generated from an 8 point curve with concentrations differing by ½ LOG units. Each point represents the average of 4 wells of data from a 384 well plate. […]
The EC50/IC50 is therefore defined as the concentration at which an agonist or antagonist elicits a response that is half way between the Top (maximum) and Bottom (baseline) values. […] The determination of the relative efficacy or % control for an agonist is by comparison to the maximum response achieved by chenodeoxycholic acid that is measured individually in each dose response experiment. […]
(In general: TR-FRET usually uses a lanthanide donor and a delayed reading to cut background.)

Like-named read-outs stand apart in the source and are kept apart here.

Regarding `CCNc1ccc(C#N)cc1N=C1SC(=C2Sc3ccccc3N2C)C(=O)N1Cc1ccccc1` [Example 32, 3-[3-benzyl-5-(3-methyl-3H-benzothiazol-2-ylidene)-4-oxothiazolidin-2-ylideneamino]-4-(ethylamino)benzonitrile], the Emax in experiment [1] (CV-1, relative to maximum response of chenodeoxycholic acid (CDCA), co-transfection assay, read-out: % efficacy) was approximately 150%. In experiment [1] (co-transfection assay), this compound yielded an EC50 of approximately 10 nM.
`CCNc1ccc(C#N)cc1N=C1SC(=C2SC(C)=C(c3ccccc3)N2C)C(=O)N1Cc1ccccc1` [Example 52, 3-(3′-benzyl-3,5-dimethyl-4′-oxo-4-phenyl-3′,4′-dihydro-3H-[2,5′]-bithiazolyliden-2′-ylideneamino)-4-(ethylamino)benzonitrile]: the Emax in experiment [1] (CV-1, read-out: % efficacy) was approximately 32%. This compound also had an EC50 in experiment [1] (co-transfection assay) of approximately 56 nM. The same compound yielded a concentration for half-maximal inhibition (IC50) on GST-FXR-LBD (FXR antagonism) of approximately 42 nM. For the same compound, the “% inhibition” value at GST-FXR-LBD (inhibition of the activity of 40 μM CDCA) is reported as “about 48%”.

Broadly, the EC50 is the concentration needed to bring the measured effect to its halfway point. A higher EC50 goes with a need for much substance. As a reminder, the IC50 is the concentration that inhibits the measured activity by half. The low end stands for higher potency, the high end for lower potency.

These data come from patent US7115640B2, “Heterocyclic modulators of nuclear receptors” (X-Ceptor Therapeutics, Inc., priority 2001, dated 2006).
